Experimental data: ChEMBL document CHEMBL1201862, “PubChem BioAssay data set” (2004)
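Briefly, cells in 96-well plates were exposed to five compound concentrations for 48 h, and endpoints were estimated by linear interpolation. GI50: concentration for 50% inhibition of growth.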 Calls of active or inactive are those of the source. Rule as the data show it: active = GI50 up to about 1.1 µM and inactive = higher.

Columns and labels:
Assay in all cases: inhibition of tumour cell growth, NCI panel, 48 h
K562 = test system: K562
SK-MEL-2 = test system: SK-MEL-2
MOLT-4 = test system: MOLT-4
SK-MEL-28 = test system: SK-MEL-28
HL-60 = test system: HL-60
TK-10 = test system: TK-10
SF-268 = test system: SF-268
MCF7 = test system: MCF7
NCI-H226 = test system: NCI-H226
MDA-N = test system: MDA-N
ACHN = test system: ACHN
SNB-75 = test system: SNB-75
COLO 205 = test system: COLO 205
UACC-62 = test system: UACC-62
PC-3 = test system: PC-3
NCI/ADR-RES = test system: NCI/ADR-RES
Malme-3M = test system: Malme-3M
NCI-H522 = test system: NCI-H522
HOP-62 = test system: HOP-62
EKVX = test system: EKVX

| SMILES | GI50 (K562) | GI50 (SK-MEL-2) | GI50 (MOLT-4) | GI50 (SK-MEL-28) | GI50 (HL-60) | GI50 (TK-10) | GI50 (SF-268) | GI50 (MCF7) | GI50 (NCI-H226) | GI50 (MDA-N) | GI50 (ACHN) | GI50 (SNB-75) | GI50 (COLO 205) | GI50 (UACC-62) | GI50 (PC-3) | GI50 (NCI/ADR-RES) | GI50 (Malme-3M) | GI50 (NCI-H522) | GI50 (HOP-62) | GI50 (EKVX) |
| --- | --- | --- | --- | --- | --- | --- | --- | --- | --- | --- | --- | --- | --- | --- | --- | --- | --- | --- | --- | --- |
| Oc1ccc(CCNCc2cc3c(cc2Br)OCO3)cc1 | 34.8 µM (inactive) | 21.7 µM (inactive) | 32.6 µM (inactive) | 37.2 µM (inactive) | 28.1 µM (inactive) | 75.9 µM (inactive) | > 100 µM (inactive) | 70.1 µM (inactive) | 32.5 µM (inactive) | 68.2 µM (inactive) | 95.5 µM (inactive) | 18.4 µM (inactive) | 18.8 µM (inactive) | 52.7 µM (inactive) | 46.9 µM (inactive) | 47.5 µM (inactive) | 62.8 µM (inactive) | 39.4 µM (inactive) | 79.3 µM (inactive) | > 100 µM (inactive) |
| CC(C)N(CC(=O)O)CC(=O)O | > 100 µM (inactive) | > 100 µM (inactive) | > 100 µM (inactive) | > 100 µM (inactive) | > 100 µM (inactive) | > 100 µM (inactive) | > 100 µM (inactive) | > 100 µM (inactive) | > 100 µM (inactive) | > 100 µM (inactive) | > 100 µM (inactive) | > 100 µM (inactive) | > 100 µM (inactive) | > 100 µM (inactive) | > 100 µM (inactive) | > 100 µM (inactive) | > 100 µM (inactive) | > 100 µM (inactive) | > 100 µM (inactive) | > 100 µM (inactive) |
| C(=N\N=C1NCCCN1)/c1ccc2ccccc2c1 | 3.48 µM (inactive) | 13.7 µM (inactive) | 1.95 µM (inactive) | 15.9 µM (inactive) | 5.24 µM (inactive) | 18.6 µM (inactive) | 14.2 µM (inactive) | 3.4 µM (inactive) | 12.4 µM (inactive) | 8.97 µM (inactive) | 10.5 µM (inactive) | 3.97 µM (inactive) | 5.93 µM (inactive) | 13.5 µM (inactive) | 10.3 µM (inactive) | 19.4 µM (inactive) | 18.2 µM (inactive) | 15.1 µM (inactive) | 12.1 µM (inactive) | 14.1 µM (inactive) |
| O=C(c1ccccc1)c1ccc2nc3n(c2c1)C(c1c(Cl)cccc1Cl)SC3 (stereo not given) | 3.12 µM (inactive) | 8.02 µM (inactive) | 2.72 µM (inactive) | 10.4 µM (inactive) | 2.36 µM (inactive) | 25.2 µM (inactive) | 4.79 µM (inactive) | 4.09 µM (inactive) | 31.2 µM (inactive) | 1.63 µM (inactive) | 7.69 µM (inactive) | 2.34 µM (inactive) | 4.88 µM (inactive) | 4.06 µM (inactive) | 5.41 µM (inactive) | 2.13 µM (inactive) | 2.81 µM (inactive) | 1.74 µM (inactive) | 6.37 µM (inactive) | 4.63 µM (inactive) |
| COC(=O)[C@H](Cc1ccccc1)NC(=O)c1ccc(CNC(=O)/C=C/c2ccc(OCc3ccccc3)cc2)cc1 | 12 µM (inactive) | 2.55 µM (inactive) | 6.17 µM (inactive) | 4.49 µM (inactive) | < 0.01 µM (active) | 13.5 µM (inactive) | 10.8 µM (inactive) | 29.4 µM (inactive) | 21.3 µM (inactive) | 2.19 µM (inactive) | 14.9 µM (inactive) | 13.8 µM (inactive) | > 73.3 µM (inactive) | 4.44 µM (inactive) | 14.7 µM (inactive) | 30.4 µM (inactive) | 3.5 µM (inactive) | 65.9 µM (inactive) | 12.6 µM (inactive) | 25.7 µM (inactive) |
| COC(=O)c1ccc(C)cc1CC1Cc2c(C)cccc2C1=O (stereo not given) | 2.94 µM (inactive) | 5.9 µM (inactive) | 5.56 µM (inactive) | 15.2 µM (inactive) | 4.54 µM (inactive) | 11.5 µM (inactive) | 9.89 µM (inactive) | 2.11 µM (inactive) | 13.7 µM (inactive) | 1.87 µM (inactive) | 22.2 µM (inactive) | 4.16 µM (inactive) | 5.69 µM (inactive) | 6.01 µM (inactive) | 6.5 µM (inactive) | 3.35 µM (inactive) | 10.7 µM (inactive) | 4.46 µM (inactive) | 13.6 µM (inactive) | 18 µM (inactive) |
| O=C(/C=C1\Nc2ccccc2N=C1NC12CC3CC(CC(C3)C1)C2)c1ccc(Br)cc1 | > 10 µM (inactive) | > 10 µM (inactive) | > 10 µM (inactive) | > 10 µM (inactive) | > 10 µM (inactive) | > 10 µM (inactive) | > 10 µM (inactive) | > 10 µM (inactive) | > 10 µM (inactive) | > 10 µM (inactive) | > 10 µM (inactive) | > 10 µM (inactive) | > 10 µM (inactive) | > 10 µM (inactive) | > 10 µM (inactive) | > 10 µM (inactive) | > 10 µM (inactive) | > 10 µM (inactive) | > 10 µM (inactive) | > 10 µM (inactive) |
| c1ccc(CSc2ccccc2CN2CCN(Cc3ccccc3SCc3ccccc3)CCN(Cc3ccccc3SCc3ccccc3)CC2)cc1 | 0.989 µM (active) | 1.45 µM (inactive) | 1.63 µM (inactive) | 1.88 µM (inactive) | 1.5 µM (inactive) | 2.3 µM (inactive) | 2.94 µM (inactive) | 1.48 µM (inactive) | 1.81 µM (inactive) | 1.52 µM (inactive) | 2.58 µM (inactive) | 1.6 µM (inactive) | 0.869 µM (active) | 1.43 µM (inactive) | 1.26 µM (inactive) | 2.44 µM (inactive) | 1.71 µM (inactive) | 0.395 µM (active) | 1.93 µM (inactive) | 1.2 µM (inactive) |
| COc1ccc(C(=O)/C=C/c2cc(O)c(O)cc2F)c(OC)c1 | 1.16 µM (inactive) | 4.91 µM (inactive) | 3.71 µM (inactive) | 11.8 µM (inactive) | 1.15 µM (inactive) | 15.1 µM (inactive) | 7.28 µM (inactive) | 0.395 µM (active) | 13.2 µM (inactive) | 2.54 µM (inactive) | 7.08 µM (inactive) | 4.67 µM (inactive) | 15.8 µM (inactive) | 10.9 µM (inactive) | 5.78 µM (inactive) | 7.85 µM (inactive) | 7.71 µM (inactive) | 0.354 µM (active) | 6.58 µM (inactive) | 14.4 µM (inactive) |
| CCOC(=O)C1(C(=O)OCC)C[C@H](C)[C@](C)(O)C1 | > 100 µM (inactive) | > 100 µM (inactive) | > 100 µM (inactive) | > 100 µM (inactive) | 37.8 µM (inactive) | > 100 µM (inactive) | > 100 µM (inactive) | > 100 µM (inactive) | > 100 µM (inactive) | > 100 µM (inactive) | > 100 µM (inactive) | > 100 µM (inactive) | > 100 µM (inactive) | > 100 µM (inactive) | > 100 µM (inactive) | > 100 µM (inactive) | > 100 µM (inactive) | > 100 µM (inactive) | > 100 µM (inactive) | > 100 µM (inactive) |
| O=c1c(Cl)nsnc1Cl | 1.73 µM (inactive) | 36.4 µM (inactive) | 1.9 µM (inactive) | 18.3 µM (inactive) | 0.787 µM (active) | 2.57 µM (inactive) | 26.4 µM (inactive) | 6.22 µM (inactive) | 22.9 µM (inactive) | 18.7 µM (inactive) | 6.1 µM (inactive) | 22.6 µM (inactive) | 1.83 µM (inactive) | 11.1 µM (inactive) | 16.2 µM (inactive) | 40.1 µM (inactive) | 6.38 µM (inactive) | 2.02 µM (inactive) | 18.7 µM (inactive) | 25.6 µM (inactive) |
| O=S(=O)(c1ccccc1)[C@H]1[C@@H]2O[C@@H]2C[C@@H]1O | > 100 µM (inactive) | > 100 µM (inactive) | > 100 µM (inactive) | > 100 µM (inactive) | > 100 µM (inactive) | > 100 µM (inactive) | > 100 µM (inactive) | > 100 µM (inactive) | > 100 µM (inactive) | > 100 µM (inactive) | > 100 µM (inactive) | 47.4 µM (inactive) | > 100 µM (inactive) | > 100 µM (inactive) | > 100 µM (inactive) | > 100 µM (inactive) | > 100 µM (inactive) | > 100 µM (inactive) | > 100 µM (inactive) | > 100 µM (inactive) |
| CN(C)CC1CCCC(CN2CCCCC2)C1=O (stereo not given) | 0.172 µM (active) | 15.7 µM (inactive) | 0.604 µM (active) | 13.9 µM (inactive) | 2.18 µM (inactive) | 8.73 µM (inactive) | 19.5 µM (inactive) | 1.07 µM (active) | 20.6 µM (inactive) | 14.4 µM (inactive) | 6.58 µM (inactive) | 19.4 µM (inactive) | 3.08 µM (inactive) | 18.3 µM (inactive) | 15.6 µM (inactive) | 3.89 µM (inactive) | 3.33 µM (inactive) | 0.0764 µM (active) | > 100 µM (inactive) | 12.5 µM (inactive) |
| Cc1ccc(/C=C2\CCCc3ccccc3C2=O)cc1 | 12.2 µM (inactive) | 2.38 µM (inactive) | 17.7 µM (inactive) | 22.4 µM (inactive) | 11.2 µM (inactive) | 25.1 µM (inactive) | 11.2 µM (inactive) | 18.3 µM (inactive) | 6.46 µM (inactive) | 1.86 µM (inactive) | 31.8 µM (inactive) | 21.2 µM (inactive) | 4.94 µM (inactive) | 9.51 µM (inactive) | 14.7 µM (inactive) | 8.67 µM (inactive) | 8.95 µM (inactive) | 6.25 µM (inactive) | 9.2 µM (inactive) | 12 µM (inactive) |
